Experimental data: patent US6761913B2, “Extracts of celery seed for the prevention and treatment of pain, inflammation and gastrointestinal irritation” (priority 1998, dated 2004)

Legend:
[1] = test system: carrageenan-induced paw edema; experiment: Carrageenan-induced paw edema (acute inflammation); format: in vivo, rat; conditions: for ED50: Rattus norvegicus, oral, 45 minutes before carrageenan, read-out: effective dose for 50 percent reduction of the paw edema (ED50)
Protocol: To evaluate early i.e. rapid-acting therapeutic efficacy, carrageenan (1 mg in 0.1 ml saline) was injected into rear paws of rats to elicit a rapid onset (acute) inflammation. The ensuing paw edema was measured by the increase in paw thickness with a micrometer over the subsequent three hour period at hourly intervals.
The test drug formulations were given orally 45 minutes before injecting the carrageenan.

[2] = test system: adjuvant-induced arthritis; experiment: Experimental (adjuvant-induced) polyarthritis in rats, treatment of established arthritis; format: in vivo, rat; conditions: for Mean % Inhibition of Arthritis Score / Mean % Inhibition of Fore Paw Swelling / Mean % Inhibition of Rear Paw Swelling: per os, mg/kg per day: A-CSE 350, S-CSE 50, Aspirin 150 × 2, Ibuprofen 50, Naproxen 25; for Mean % Inhibition of Arthritis Score: days 10-13, day 14, independent observer; for Mean % Inhibition of Fore Paw Swelling / Mean % Inhibition of Rear Paw Swelling: days 10-13, measured day 14; for anti-inflammatory activity: tested at 50 mg/kg
[3] = test system: NSAID-induced gastric lesions; experiment: Gastric injury caused by aspirin/NSAIDs in pre-sensitised (pre-inflamed) rats, gastroprotection assay; conditions: for incidence of gastric lesions and bleeding: pre-inflamed rats, aspirin 100 mg/kg, Naproxen 10 mg/kg, Ketoprofen 5 mg/kg orally, Piroxicam 5 mg/kg intraperitoneally
Protocol: This model comprises oral or parenteral non-steroidal anti-inflammatory drugs (NSAIDs) given to rats whose gastrointestinal mucosa is pre-sensitized by prior development of arthritis or oleyl alcohol-induced inflammation. The animals are pre-sensitized by injection of an arthritogenic adjuvant or 0.1 ml oleyl alcohol 5 days prior to the assay.
The disease stress was induced five days previously either by injecting an arthritigenic adjuvant or 0.1 ml oleyl alcohol into the tail base to incite severe local inflammation. […] A-CSE or S-CSE was given orally within 20 seconds of the aspirin/NSAID. The number (N) and severity (S, graded on a score of 0 to 4 based on increasing area of injury) of gastric lesions as well as the percentage incidence of animals (%I) with gastric damage was recorded. The lesion index (LI) was then calculated as: LI=N/n+S/n+%I/10, where n=number of animals per group.
Gastroprotective activity was assessed in fasted (overnight) arthritic rats challenged with 50 mg/kg Ibuprofen given orally to induce gastric bleeding. Test preparations, dispersed with Tween-20, were given orally 20 seconds prior to Ibuprofen.
The procedure is further elaborated in K. Rainsford and M. Whitehouse [J. Pharm.

[4] = test system: adjuvant arthritis (onset); experiment: Arthritis-ablating activity: test material incorporated into the arthritigenic adjuvant; format: in vivo, female Dark Agouti rats; conditions: for activity in preventing (ablating) adjuvant arthritis: summary of Table 3; for effect on arthritis score (AS): most tested at 10 mg/rat, no effect = AS 2.5+
[5] = test system: production of prostaglandin E2; experiment: Production of prostaglandin E2 by pig gastric (fundic) mucosal explants; format: cell-based; conditions: 10 μmol/L, pure samples
[6] = test system: adjuvant arthritis (onset); conditions: Haynes D R et al. Inflamm Res 45:159-165, 1996; cited from earlier work

SMILES: CC(=O)Oc1ccccc1C(=O)O [Aspirin]
- ED50 [1]: 200 mg/kg
- Mean % Inhibition of Arthritis Score [2]: 25%
- Mean % Inhibition of Fore Paw Swelling [2]: 24%
- Mean % Inhibition of Rear Paw Swelling [2]: 40%
- incidence of gastric lesions and bleeding [3]: 90%
- activity in preventing (ablating) adjuvant arthritis [4]: not shared

SMILES: COc1c2ccoc2cc2oc(=O)ccc12 [Bergapten]
- activity in preventing (ablating) adjuvant arthritis [4]: without such activity

SMILES: CCCCC1OC(=O)c2ccccc21 (stereo not shown) [Butylphthalide]
- anti-inflammatory activity [2]: no anti-inflammatory or gastroprotective activity
- gastroprotective activity ([3]; tested at 50 mg/kg): no anti-inflammatory or gastroprotective activity
- activity in preventing (ablating) adjuvant arthritis [4]: without such activity

SMILES: CC(C)Cc1ccc(C(C)C(=O)O)cc1 (stereo not shown) [Ibuprofen]
- inhibition of paw swelling ([1]; Ibuprofen 15 mg/kg, Ketoprofen 1 mg/kg, alone, n=6, not statistically significant): 19%
- ED50 [1]: 45 mg/kg
- suppression of arthritic paw swelling / inhibition of polyarthritis ([2]; four successive oral doses, Ibuprofen 30 mg/kg, A-CSE 50 mg/kg, S-CSE 5 mg/kg): 38%
- Mean % Inhibition of Arthritis Score [2]: 36%
- Mean % Inhibition of Fore Paw Swelling [2]: 39%
- Mean % Inhibition of Rear Paw Swelling [2]: 38%
- mean number of haemorrhagic lesions (+/−SD) ([3]; 50 mg/kg, free acid or Nurofen, suspension 5 ml/kg, pre-inflamed female Wistar rats, n=90): 42+/−06
- animals with no macroscopically detectable gastric bleeding ([3]; Ibuprofen 50 mg/kg with no celery (n=90 rats) or with celery extracts (n=67 rats)): 7%
- activity in preventing (ablating) adjuvant arthritis [4]: not shared

SMILES: C=C(C)[C@H]1CC=C(C)CC1 [Limonene]
- anti-inflammatory activity [2]: no anti-inflammatory or gastroprotective activity
- activity in preventing (ablating) adjuvant arthritis [4]: without such activity
- effect on production of prostaglandin E2 [5]: not

SMILES: COc1ccc2cc([C@H](C)C(=O)O)ccc2c1 [Naproxen]
- Mean % Inhibition of Arthritis Score [2]: 64%
- Mean % Inhibition of Fore Paw Swelling [2]: 36%
- Mean % Inhibition of Rear Paw Swelling [2]: 57%
- activity in preventing (ablating) adjuvant arthritis [4]: not shared

SMILES: CCCCCCCCCCC/C=C\CCCCC(=O)OC [Petroselenic acid methyl ester]
- activity in preventing (ablating) adjuvant arthritis [4]: without such activity

SMILES: CN1C(C(=O)Nc2ccccn2)=C(O)c2ccccc2S1(=O)=O [Piroxicam]
- incidence of gastric lesions and bleeding [3]: 90%

SMILES: Cn1cnc([N+](=O)[O-])c1Sc1ncnc2nc[nH]c12 [azathioprine]
- effect on arthritis score (AS) [4]: no effect

SMILES: O=C(O)CCCc1ccc(N(CCCl)CCCl)cc1 [chlorambucil]
- effect on arthritis score (AS) [4]: no effect

SMILES: Nc1ccc(S(=O)(=O)c2ccc(N)cc2)cc1 [dapsone]
- effect on arthritis score (AS) [4]: no effect

SMILES: O=C(O)c1ccccc1Nc1cc(Cl)ccc1C(=O)O [lobenzarit]
- ablating the onset of arthritis [6]: capable of ablating the onset of arthritis

SMILES: O=c1c(O)c(-c2cc(O)c(O)c(O)c2)oc2cc(O)cc(O)c12 [myricetin]
- effect on production of prostaglandin E2 [5]: inhibited

SMILES: O=c1c(O)c(-c2ccc(O)c(O)c2)oc2cc(O)cc(O)c12 [quercetin]
- effect on production of prostaglandin E2 [5]: inhibited
